Data as given in patent US20220089592A1, “IMIDAZO[1,2-A]PYRIDINYL DERIVATIVES AS IRAK4 INHIBITORS” (priority 2019, published 2022).

Molecular target: T1, IRAK4 (Homo sapiens, UniProt Q9NWZ3)
T1 sequence (Q9NWZ3 1-460): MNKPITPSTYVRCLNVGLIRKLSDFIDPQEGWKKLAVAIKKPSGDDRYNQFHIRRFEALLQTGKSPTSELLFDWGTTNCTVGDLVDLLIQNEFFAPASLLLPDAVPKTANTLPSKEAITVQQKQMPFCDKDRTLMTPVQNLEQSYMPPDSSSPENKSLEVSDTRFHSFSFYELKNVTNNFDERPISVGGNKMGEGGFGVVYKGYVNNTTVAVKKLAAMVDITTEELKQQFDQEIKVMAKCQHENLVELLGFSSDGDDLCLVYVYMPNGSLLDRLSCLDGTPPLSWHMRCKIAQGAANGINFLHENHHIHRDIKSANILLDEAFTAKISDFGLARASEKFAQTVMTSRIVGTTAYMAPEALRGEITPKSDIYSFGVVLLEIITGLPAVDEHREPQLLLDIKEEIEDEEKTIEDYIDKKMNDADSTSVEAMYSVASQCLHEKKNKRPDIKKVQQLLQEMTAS
Experiment: 2-hour 1 mM ATP IRAK4 Biochemical assay (as above, but with 100 pM IRAK4 and 1 mM ATP)
Conditions: IRAK4 MSD BIOCHEMICAL (1 mM ATP) IC50 (μM), 100 pM IRAK4, 2 hours
Summary of the method: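 MSD electrochemiluminescence read-out: biotinylated peptide product bound to streptavidin plates, probed with anti-P-Thr rabbit antibody and Sulfo-Tag goat anti-rabbit. Kinase reaction used 1 mM ATP and 100 pM IRAK4 over 2 hours before EDTA quench.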

CC(C)Oc1cc2nc(-c3cccc(F)c3)cn2cc1NC(=O)c1cccc(C(F)F)n1 [Example 538, 6-(difluoromethyl)-N-(2-(3-fluorophenyl)-7-isopropoxyimidazo[1,2-a]pyridin-6-yl)picolinamide 2,2,2-trifluoroacetate]
IC50: 0.003 µM

COc1nc(NC(=O)c2cccc(C(F)(F)F)n2)cn2cc(C3CCCOC3)nc12 (single isomer, unassigned) [Example 300, N-(8-methoxy-2-(tetrahydro-2H-pyran-3-yl)imidazo[1,2-a]pyrazin-6-yl)-6-(trifluoromethyl)picolinamide]
IC50: 0.005 µM

O=C(Nc1cn2cc(C3CCOCC3)nc2cc1OCC1CC12CCOC2)c1cccc(C(F)F)n1 (stereo not shown) [Example 194, N-(7-((5-oxaspiro[2.4]heptan-1-yl)methoxy)-2-(tetrahydro-2H-pyran-4-yl)imidazo[1,2-a]pyridin-6-yl)-6-(difluoromethyl)picolinamide]
IC50: 0.002 µM

Cc1nc(C(=O)Nc2cn3cc(C4CCOCC4)nc3cc2OC(C)C)co1 [Example 386, N-(7-isopropoxy-2-(tetrahydro-2H-pyran-4-yl)imidazo[1,2-a]pyridin-6-yl)-2-methyloxazole-4-carboxamide]
IC50: 0.002 µM

Cc1cccc(C(=O)Nc2cn3cc(C4CCOCC4)nc3cc2C(F)F)n1 [Example 315, N-(7-(difluoromethyl)-2-(tetrahydro-2H-pyran-4-yl)imidazo[1,2-a]pyridin-6-yl)-6-methylpicolinamide]
IC50: 0.021 µM

O=C(Nc1cn2cc(C3CC4(CCOC4)C3)nc2cn1)c1cccc(C(F)F)n1 (stereo not shown) [Example 273, N-(2-(6-oxaspiro[3.4]octan-2-yl)imidazo[1,2-a]pyrazin-6-yl)-6-(difluoromethyl)picolinamide]
IC50: 0.02 µM

COc1c(F)cccc1C(=O)Nc1cc(C)c2nc(C34COC(C)(C3)C4)cn2c1 [Example 407, 3-fluoro-2-methoxy-N-(8-methyl-2-(1-methyl-2-oxabicyclo[2.1.1]hexan-4-yl)imidazo[1,2-a]pyridin-6-yl)benzamide]
IC50: 0.732 µM

CCOc1nc(NC(=O)c2coc(C)n2)cn2cc(C34COC(C)(C3)C4)nc12 [Example 473, N-(8-ethoxy-2-(1-methyl-2-oxabicyclo[2.1.1]hexan-4-yl)imidazo[1,2-a]pyrazin-6-yl)-2-methyloxazole-4-carboxamide]
IC50: 0.031 µM

COc1ncccc1C(=O)Nc1cn2cc(C34COC(C)(C3)C4)nc2c(OC)n1 [Example 447, 2-methoxy-N-(8-methoxy-2-(1-methyl-2-oxabicyclo[2.1.1]hexan-4-yl)imidazo[1,2-a]pyrazin-6-yl)nicotinamide 2,2,2-trifluoroacetate]
IC50: 0.015 µM

COc1nc(NC(=O)c2coc(C(F)F)n2)cn2cc(C3CCOCC3)nc12 [Example 333, 2-(difluoromethyl)-N-(8-methoxy-2-(tetrahydro-2H-pyran-4-yl)imidazo[1,2-a]pyrazin-6-yl)oxazole-4-carboxamide]
IC50: 0.044 µM

CC(C)Oc1nc2nc(C34CC(C3)C4)cn2cc1NC(=O)c1cccc(C(F)F)n1 [Example 573, N-(2-(bicyclo[1.1.1]pentan-1-yl)-7-isopropoxyimidazo[1,2-a]pyrimidin-6-yl)-6-(difluoromethyl)picolinamide 2,2,2-trifluoroacetate]
IC50: 0.003 µM

COc1ncccc1C(=O)Nc1cn2cc(C34COC(C)(C3)C4)nc2c(OC(C)C)n1 [Example 337, N-(8-isopropoxy-2-(1-methyl-2-oxabicyclo[2.1.1]hexan-4-yl)imidazo[1,2-a]pyrazin-6-yl)-2-methoxynicotinamide]
IC50: 0.006 µM

Cn1ccc(C(=O)Nc2cn3cc(C45COC(C)(C4)C5)nc3c(F)c2OC2CCCC2)n1 [Example 437, N-(7-(cyclopentyloxy)-8-fluoro-2-(1-methyl-2-oxabicyclo[2.1.1]hexan-4-yl)imidazo[1,2-a]pyridin-6-yl)-1-methyl-1H-pyrazole-3-carboxamide 2,2,2-trifluoroacetate]
IC50: 0.004 µM

CCOc1cc2nc(C3CCOCC3)cn2cc1NC(=O)c1cccc(CC)n1 [Example 217, N-(7-ethoxy-2-(tetrahydro-2H-pyran-4-yl)imidazo[1,2-a]pyridin-6-yl)-6-ethylpicolinamide]
IC50: 0.001 µM

CC(C)Oc1nc(NC(=O)c2cccc3ccnn23)cn2cc(C34COC(C)(C3)C4)nc12 [Example 336, N-(8-Isopropoxy-2-(1-methyl-2-oxabicyclo[2.1.1]hexan-4-yl)imidazo[1,2-a]pyrazin-6-yl)pyrazolo[1,5-a]pyridine-7-carboxamide]
IC50: 0.003 µM

COc1ccccc1C(=O)Nc1cn2cc(C34COC(C)(C3)C4)nc2c(OC(C)C)n1 [Example 477, N-(8-isopropoxy-2-(1-methyl-2-oxabicyclo[2.1.1]hexan-4-yl)imidazo[1,2-a]pyrazin-6-yl)-2-methoxybenzamide 2,2,2-trifluoroacetate]
IC50: 0.015 µM

COc1ncccc1C(=O)Nc1cn2cc(C34COC(C)(C3)C4)nc2cc1C(F)F [Example 391, N-(7-(difluoromethyl)-2-(1-methyl-2-oxabicyclo[2.1.1]hexan-4-yl)imidazo[1,2-a]pyridin-6-yl)-2-methoxynicotinamide 2,2,2-trifluoroacetate]
IC50: 0.021 µM

C[C@@H]1C[C@H](Oc2cc3nc(C4CCOCC4)cn3cc2NC(=O)c2cccc(C(F)F)n2)C[C@H](C)O1 [Example 187, 6-(difluoromethyl)-N-(7-(((2R*,4R*,6S*)-2,6-dimethyltetrahydro-2H-pyran-4-yl)oxy)-2-(tetrahydro-2H-pyran-4-yl)imidazo[1,2-a]pyridin-6-yl)picolinamide]
IC50: 0.001 µM

Cn1ccc(C(=O)Nc2cn3cc(C45COC(C)(C4)C5)nc3cc2OC(F)F)n1 [Example 397, N-(7-(difluoromethoxy)-2-(1-methyl-2-oxabicyclo[2.1.1]hexan-4-yl)imidazo[1,2-a]pyridin-6-yl)-1-methyl-1H-pyrazole-3-carboxamide 2,2,2-trifluoroacetate]
IC50: 0.021 µM

CC(C)Oc1cc2nc(C3CC3)cn2cc1NC(=O)c1cccc(C(F)F)n1 [Example 526, N-(2-cyclopropyl-7-isopropoxyimidazo[1,2-a]pyridin-6-yl)-6-(difluoromethyl)picolinamide]
IC50: 0.001 µM

CCOc1cc2nc(C34COCC3C4)cn2cc1NC(=O)c1cccc(C(F)F)n1 (stereo not shown) [Example 518, N-(2-(3-oxabicyclo[3.1.0]hexan-1-yl)-7-ethoxyimidazo[1,2-a]pyridin-6-yl)-6-(difluoromethyl)picolinamide]
IC50: 0.001 µM

CC(C)Oc1c(NC(=O)c2coc(C(F)F)n2)cn2cc(C34COC(C)(C3)C4)nc2c1F [Example 430, 2-(difluoromethyl)-N-(8-fluoro-7-isopropoxy-2-(1-methyl-2-oxabicyclo[2.1.1]hexan-4-yl)imidazo[1,2-a]pyridin-6-yl)oxazole-4-carboxamide 2,2,2-trifluoroacetate]
IC50: 0.008 µM

COc1nc2nc(C34CC(OC)(C3)C4)cn2cc1NC(=O)c1cccc(C(F)F)n1 [Example 565, 6-(difluoromethyl)-N-(7-methoxy-2-(3-methoxybicyclo[1.1.1]pentan-1-yl)imidazo[1,2-a]pyrimidin-6-yl)picolinamide]
IC50: 0.01 µM

COc1nc(NC(=O)c2cccc(C)c2F)cn2cc(C34CCC(C)(C3)OC4)nc12 (stereo not shown) [Example 467, 2-fluoro-N-(8-methoxy-2-(1-methyl-2-oxabicyclo[2.2.1]heptan-4-yl)imidazo[1,2-a]pyrazin-6-yl)-3-methylbenzamide 2,2,2-trifluoroacetate]
IC50: 0.051 µM

COc1ncccc1C(=O)Nc1cn2cc(C3CCOCC3)nc2c(OC)n1 [Example 458, 2-methoxy-N-(8-methoxy-2-(tetrahydro-2H-pyran-4-yl)imidazo[1,2-a]pyrazin-6-yl)nicotinamide 2,2,2-trifluoroacetate]
IC50: 0.036 µM

COc1ccccc1C(=O)Nc1cn2cc(C34COC(C)(C3)C4)nc2nc1OC1CC1 [Example 350, N-(7-cyclopropoxy-2-(1-methyl-2-oxabicyclo[2.1.1]hexan-4-yl)imidazo[1,2-a]pyrimidin-6-yl)-2-methoxybenzamide]
IC50: 0.006 µM

CC(C)Oc1nc2nc(C34COC(C)(C3)C4)cn2cc1NC(=O)c1ccnc2ccnn12 [Example 495, N-(7-isopropoxy-2-(1-methyl-2-oxabicyclo[2.1.1]hexan-4-yl)imidazo[1,2-a]pyrimidin-6-yl)pyrazolo[1,5-a]pyrimidine-7-carboxamide]
IC50: 0.007 µM

CCC(C)Oc1c(NC(=O)c2cccnc2OC)cn2cc(C34COC(C)(C3)C4)nc2c1F (single isomer, unassigned) [Example 327, N-(7-(sec-butoxy)-8-fluoro-2-(1-methyl-2-oxabicyclo[2.1.1]hexan-4-yl)imidazo[1,2-a]pyridin-6-yl)-2-methoxynicotinamide]
IC50: 0.02 µM

Cc1nc(C(=O)Nc2cn3cc(C45COC(C)(C4)C5)nc3cc2OC(C)C)co1 [Example 529, N-(7-isopropoxy-2-(1-methyl-2-oxabicyclo[2.1.1]hexan-4-yl)imidazo[1,2-a]pyridin-6-yl)-2-methyloxazole-4-carboxamide]
IC50: 0.001 µM

COc1ncccc1C(=O)Nc1cn2cc(C34COC(C)(C3)C4)nc2c(F)c1OC1CCCC1 [Example 329]
IC50: 0.017 µM

COc1nc(NC(=O)c2coc(C(F)F)n2)cn2cc(C34COC(C)(C3)C4)nc12 [Example 439, 2-(difluoromethyl)-N-(8-methoxy-2-(1-methyl-2-oxabicyclo[2.1.1]hexan-4-yl)imidazo[1,2-a]pyrazin-6-yl)oxazole-4-carboxamide]
IC50: 0.063 µM
